Experimental data reported in patent US12208071B2, “Glucagon receptor antagonists” (LIGAND PHARMACEUTICALS INCORPORATED, priority 2018, dated 2025).
“Also recorded” adds a separate entry of the source.

Columns and labels:
[1] = Long-term stability (ICH), 25° C./60% RH; type: physicochemical
Protocol: Polymorph Form A was manufactured under Good Manufacturing Practices (GMP)-compliant conditions at a scale of 1.26 kg. The container closure for the batch consisted of double-lined low density polyethylene bags placed inside fiberboard drums, and the batch was on ICH stability under storage conditions of 25° C./60% relative humidity (RH) and 40° C./75% RH. Long-term stability data through the 36-month interval and accelerated stability data through the 6-month interval are shown in Tables 2 and 3.
Stability samples were tested according to the protocol (Table 5) and to the same specification as the drug substance. The available stability data for samples stored at 25° C./60% RH and 40° C./75% RH are summarized.

[2] = Photostability / solid stability under light (5000 lux); type: physicochemical
Protocol: Photostability testing was conducted on Polymorph Form A at 1- and 2-week intervals under light conditions of 5000 lux with the sample held at room temperature. The samples were tested for appearance, purity (HPLC), total related substances (TRS), and XRPD. The only change observed in the photostability samples was a decrease in purity of 0.6% at the 1-week interval.
About 3 mg Polymorph Form A was weighed in glass vials and samples stored under light condition (5000 lx) for 1 week and 2 weeks, separately. Another 20 mg testing compound was weighed in glass vials and the samples stored under light condition for 1 week and 2 weeks, separately. The original compound was stored at −20° C. as the control. The physical appearance, assay, total related substances (TRS) and XRPD pattern were checked at the end of the 1st week and the 2nd week.

[3] = 5000 Lux, open container, 0 weeks
[4] = 5000 Lux, open container, 1 week
[5] = 5000 Lux, open container, 2 weeks

Total related substances ([1]; 25° C./60% RH, 9 months): 0.25%
Water content (%) ([1]; 25° C./60% RH, 9 months): 6.7%
Appearance ([1]; 25° C./60% RH, 12 months): White
Assay (anhydrous w/w %) ([1]; 25° C./60% RH, 12 months): 101.0 w/w %
Chiral purity (area %) ([1]; 25° C./60% RH, 12 months): 99.4 area %
Individual related substance (area %, w/w), RRT 0.46 ([1]; 25° C./60% RH, 12 months): 0.08 area %, w/w
Individual related substance (area %, w/w), RRT 0.64 ([1]; 25° C./60% RH, 12 months): 0.11 area %, w/w
Individual related substance (area %, w/w), RRT 1.20 ([1]; 25° C./60% RH, 12 months): 0.05 area %, w/w
Purity (% area) ([1]; 25° C./60% RH, 12 months): 99.8 % area
Total related substances ([1]; 25° C./60% RH, 12 months): 0.24%
Water content (%) ([1]; 25° C./60% RH, 12 months): 7.0%
XRPD ([1]; 25° C./60% RH, 12 months): Same
Appearance ([1]; 25° C./60% RH, 18 months): White
Assay (anhydrous w/w %) ([1]; 25° C./60% RH, 18 months): 100.9 w/w %
Chiral purity (area %) ([1]; 25° C./60% RH, 18 months): 99.5 area %
Individual related substance (area %, w/w), RRT 0.46 ([1]; 25° C./60% RH, 18 months): 0.08 area %, w/w
Individual related substance (area %, w/w), RRT 0.64 ([1]; 25° C./60% RH, 18 months): 0.12 area %, w/w
Individual related substance (area %, w/w), RRT 1.20 ([1]; 25° C./60% RH, 18 months): 0.06 area %, w/w
Purity (% area) ([1]; 25° C./60% RH, 18 months): 99.7 % area
Total related substances ([1]; 25° C./60% RH, 18 months): 0.26%
Water content (%) ([1]; 25° C./60% RH, 18 months): 6.9%
Appearance ([1]; 25° C./60% RH, 24 months): White
Assay (anhydrous w/w %) ([1]; 25° C./60% RH, 24 months): 101.6 w/w %
Chiral purity (area %) ([1]; 25° C./60% RH, 24 months): 100.0 area %
Individual related substance (area %, w/w), RRT 0.46 ([1]; 25° C./60% RH, 24 months): 0.08 area %, w/w
Individual related substance (area %, w/w), RRT 0.64 ([1]; 25° C./60% RH, 24 months): 0.12 area %, w/w
Individual related substance (area %, w/w), RRT 1.20 ([1]; 25° C./60% RH, 24 months): 0.07 area %, w/w
Purity (% area) ([1]; 25° C./60% RH, 24 months): 99.7 % area
Total related substances ([1]; 25° C./60% RH, 24 months): 0.27%
Water content (%) ([1]; 25° C./60% RH, 24 months): 7.4%
XRPD ([1]; 25° C./60% RH, 24 months): Same
Appearance ([1]; 25° C./60% RH, 36 months): White
Assay (anhydrous w/w %) ([1]; 25° C./60% RH, 36 months): 101.4 w/w %
Chiral purity (area %) ([1]; 25° C./60% RH, 36 months): 99.8 area %
Individual related substance (area %, w/w), RRT 0.31 ([1]; 25° C./60% RH, 36 months): 0.05 area %, w/w
Individual related substance (area %, w/w), RRT 0.46 ([1]; 25° C./60% RH, 36 months): 0.08 area %, w/w
Individual related substance (area %, w/w), RRT 0.64 ([1]; 25° C./60% RH, 36 months): 0.12 area %, w/w
Individual related substance (area %, w/w), RRT 1.20 ([1]; 25° C./60% RH, 36 months): 0.05 area %, w/w
Purity (% area) ([1]; 25° C./60% RH, 36 months): 99.7 % area
Total related substances ([1]; 25° C./60% RH, 36 months): 0.3%
Water content (%) ([1]; 25° C./60% RH, 36 months): 7.5%
XRPD ([1]; 25° C./60% RH, 36 months): Same
anhydrous assay value ([1]; long-term condition through the 36-month interval): around 101%
changes in assay value, total related substances, physical description, or solid state form (XRPD) ([1]; stored at 25° C./60% RH and 40° C./75% RH): No significant changes
Total related substances ([1]; stored at 25° C./60% RH and 40° C./75% RH, remained constant): around 0.25%
Appearance [2, 3]: White powder
Purity (area %) [2, 3]: 99.8 area %
Total related substances (area %, w/w) [2, 3]: 0.25 area %, w/w
Appearance [2, 4]: White powder
Purity (area %) [2, 4]: 99.2 area %
Total related substances (area %, w/w) [2, 4]: 0.25 area %, w/w
XRPD [2, 4]: Same form
Appearance [2, 5]: White powder
Purity (area %) [2, 5]: 99.2 area %
Total related substances (area %, w/w) [2, 5]: 0.25 area %, w/w
XRPD [2, 5]: Same form
decrease in purity ([2]; 5000 lux, room temperature, 1-week interval): 0.6%
Appearance ([2]; light (5000 lx), 1 week): white powder
TRS % ([2]; light (5000 lx), 1 week): 0.25%
XRPD pattern ([2]; light (5000 lx), 1 week): Form A
Appearance ([2]; light (5000 lx), 2 weeks): white powder
TRS % ([2]; light (5000 lx), 2 weeks): 0.25%
XRPD pattern ([2]; light (5000 lx), 2 weeks): Form A
Appearance ([2]; −20° C., 0 day (control)): white powder
TRS % ([2]; −20° C., 0 day (control)): 0.25%
XRPD pattern ([2]; −20° C., 0 day (control)): Form A
Compound: Cc1cc(C)c(-c2ccc(NC(=O)[C@H](Cc3ccc(C(=O)NCCS(=O)(=O)[O-])cc3)c3ccc(-c4ccc(C(C)(C)C)cc4)cc3)cc2)c(C)c1.[Na+] [Polymorph Form A, Sodium (R)-2-(4-(2-(4′-(tert-butyl)-[1,1′-biphenyl]-4-yl)-3-oxo-3-((2′,4′,6′-trimethyl-[1,1′-biphenyl]-4-yl)amino)propyl)benzamido)ethane-1-sulfonate]
stability under light condition (overall) ([2]; 5000 lux, 2 weeks): No significant changes; also recorded: No significant increase in TRS % or decrease in recovery %; also recorded: relatively stable
